From the NIST ThermoML archive (doi:10.1021/acs.jced.8b00713)

Settings: Liquid; for viscosity: Vibrating wire viscometry; for mass density: Vibrating tube method

FC(F)(F)/C=C\C(F)(F)F [(Z)-1,1,1,4,4,4-hexafluorobut-2-ene]
Settings	mass density [kg/m3]	viscosity [mPa·s]
253.14 K, 15000 kPa	–	0.7477
253.14 K, 20000 kPa	–	0.7916
253.15 K, 100 kPa	–	0.6315
253.15 K, 5000 kPa	–	0.6695
253.15 K, 25000 kPa	–	0.8337
253.15 K, 30100 kPa	–	0.871
253.16 K, 1000 kPa	–	0.6387
253.16 K, 2000 kPa	–	0.647
253.16 K, 10000 kPa	–	0.7114
253.16 K, 40000 kPa	–	0.9576
263.14 K, 2000 kPa	–	0.5721
263.14 K, 5000 kPa	–	0.5916
263.14 K, 30000 kPa	–	0.7644
263.15 K, 100 kPa	–	0.5599
263.15 K, 1000 kPa	–	0.5656
263.15 K, 10000 kPa	–	0.6247
263.15 K, 15000 kPa	–	0.6579
263.15 K, 20000 kPa	–	0.6906
263.16 K, 25000 kPa	–	0.7286
263.16 K, 40000 kPa	–	0.8352
273.13 K, 100 kPa	–	0.493
273.13 K, 10000 kPa	–	0.5526
273.14 K, 1000 kPa	–	0.4975
273.14 K, 15000 kPa	–	0.584
273.14 K, 25000 kPa	–	0.643
273.14 K, 29700 kPa	–	0.6776
273.15 K, 5000 kPa	–	0.5227
273.15 K, 20000 kPa	–	0.6131
273.16 K, 2000 kPa	–	0.5035
273.16 K, 40000 kPa	–	0.7422
283.14 K, 15000 kPa	–	0.5206
283.14 K, 20000 kPa	–	0.547
283.15 K, 100 kPa	1402.57	–
283.15 K, 1000 kPa	1405.16	–
283.15 K, 2000 kPa	1408.09	0.446
283.15 K, 5000 kPa	1416.4	0.462
283.15 K, 10000 kPa	1429.39	0.49
283.15 K, 15000 kPa	1441.21	–
283.15 K, 20000 kPa	1452.25	–
283.15 K, 25000 kPa	1462.46	0.5731
283.15 K, 30000 kPa	1472	0.6009
283.15 K, 40000 kPa	1489.73	0.6578
283.15 K, 50000 kPa	1505.53	–
283.15 K, 60000 kPa	1520.01	–
283.15 K, 80000 kPa	1545.15	–
283.15 K, 100000 kPa	1566.76	–
283.16 K, 100 kPa	–	0.4357
283.17 K, 1000 kPa	–	0.4423
293.15 K, 100 kPa	1377.12	–
293.15 K, 1000 kPa	1380.09	0.3924
293.15 K, 2000 kPa	1383.27	0.3978
293.15 K, 5000 kPa	1392.34	–
293.15 K, 10000 kPa	1406.41	0.4385
293.15 K, 15000 kPa	1419.13	–
293.15 K, 15100 kPa	–	0.4651
293.15 K, 20000 kPa	1430.86	–
293.15 K, 25000 kPa	1441.76	0.5151
293.15 K, 30000 kPa	1451.97	0.5414
293.15 K, 40000 kPa	–	0.5919
293.15 K, 60000 kPa	1501.97	–
293.15 K, 80010 kPa	1528.17	–
293.15 K, 99990 kPa	1550.16	–
293.16 K, 200 kPa	–	0.388
293.16 K, 5000 kPa	–	0.4135
293.16 K, 20000 kPa	–	0.4904
293.16 K, 40000 kPa	1470.38	–
293.16 K, 50000 kPa	1486.98	–
303.14 K, 20000 kPa	–	0.441
303.15 K, 100 kPa	1351.47	–
303.15 K, 200 kPa	–	0.3454
303.15 K, 1000 kPa	1354.72	0.3494
303.15 K, 5000 kPa	–	0.3692
303.15 K, 10000 kPa	1383.63	–
303.15 K, 15000 kPa	1397.49	0.4173
303.15 K, 25000 kPa	1421.76	0.4647
303.15 K, 30000 kPa	1432.55	0.4879
303.15 K, 40000 kPa	–	0.5357
303.15 K, 50000 kPa	1469.43	–
303.15 K, 60000 kPa	1485.09	–
303.15 K, 80000 kPa	1512.19	–
303.15 K, 100010 kPa	1535.09	–
303.16 K, 2000 kPa	1358.24	0.3548
303.16 K, 5000 kPa	1368.33	–
303.16 K, 20000 kPa	1410.02	–
303.16 K, 40000 kPa	1452.02	–
303.17 K, 10000 kPa	–	0.3938
313.14 K, 1000 kPa	1327.46	–
313.14 K, 100010 kPa	1519.55	–
313.15 K, 500 kPa	1325.41	0.31
313.15 K, 1000 kPa	–	0.3121
313.15 K, 2000 kPa	1331.4	0.3173
313.15 K, 5000 kPa	1342.64	0.3312
313.15 K, 10000 kPa	1359.5	–
313.15 K, 15000 kPa	1374.49	0.3776
313.15 K, 20000 kPa	1388.16	0.3989
313.15 K, 25000 kPa	1400.64	0.421
313.15 K, 30000 kPa	1412.04	0.4431
313.15 K, 40000 kPa	1432.78	0.4866
313.15 K, 80010 kPa	1495.94	–
